Source: patent US4767749A, “Ester of (triarylphosphoranylidene)carbamic acid having diuretic and ability to lower plasma renin properties” (American Cyanamid Company, priority 1986, dated 1988)

Tests used:
[1] = test system: plasma renin activity; experiment: Inhibition of evoked (drug-induced) elevation of plasma renin activity in conscious rats; type: in vivo, male Wistar rats; settings: Rattus norvegicus; 25 mg/kg oral, 30 min before provocative treatment
Protocol: Inhibition of evoked increase of plasma renin activity was determined by the following test.
Compounds were tested for their ability to prevent drug-induced elevation of plasma renin activity (PRA) in concious, male Wistar rats (180-200 g, Charles River Lab.). PRA elevation was induced by a combined oral provacative treatment (C) of hydrochlorothiazide (10 mg/kg) and 1-(3-benzoyl-3-mercapto-2-methylpropionyl)-L-proline, acetate (U.S. Pat. No. 4,226,775) (one mg/kg), prepared by compounding in a mortar and pestle with preboiled 3% starch suspension. This treatment provided the daily maximum PRA. The daily minimum PRA was obtained from rats given oral starch suspension (S) alone. The magnitude of drug effect on PRA elevation was ascertained from rats pretreated orally with test agent (D), at the indicated doses, 30 minutes prior to administration of provacative treatment (C). The test agent was also compounded in preboiled 3% starch suspension. The dose volumes for both pretreatment and provocative treatment were 2 ml/kg. One hour after provocative treatment the rats were sacrificed by decapitation and the first 3 seconds of blood collected in two chilled Vacutainer® tubes (Becton-Dickinson, Rutherford, N.J.) containing 40 μl of 150 mg/ml tripotassium EDTA. The plasma fractions, obtained by centrifugation for 20 minutes at 4° C. and 3000 G, were incubated (one of each pair at 37° C., the other at 4° C.) at pH 6.8 in 50 mM phosphate buffer to produce angiotensin I. The incubates contained peptidase inhibitors to prevent angiotensin I degradation and the incubation buffer contained one mg/ml lysozyme (Sigma Grade III) used as an antiabsorbant. The incubates were diluted 20 fold in cold 100 mM Tris buffer (pH adjusted to 7.4 with glacial acetic acid) also containing one mg/ml lysozyme, and then frozen. Diluted incubates were assayed within 3 days for angiotensin I content by radioimmunoassay according to a modification of the method of Haber, et al., J. Clin. Endocrin., 29, 1349-1355 (1969).
PRA is calculated as follows:
PRA(ng AI/hour/ml plasma)=PRA 37° C.-PRA 4° C.
Percent inhibition of PRA elevation is calculated as follows: [formula]

[2] = test system: spontaneously hypertensive rats (SHR); experiment: Diuretic activity in spontaneously hypertensive rats; type: in vivo, male spontaneously hypertensive rats (Okamoto strain); settings: 100 mg/kg by gavage with 0.9% sodium chloride loading 25 ml/kg; 0-5 hour urine
Protocol: The diuretic activity of the compounds of this invention was also determined according to the method of Chan, P. S. and Poorvin, D., Sequential method for combined screening antihypertensive and diuretic agents in the same spontaneously hypertensive rat. Clinical and Experimental Hypertension, 1(6), 817-830 (1979).
Male spontaneously hypertensive rats (SHR) of Okamoto strain, 16 weeks old, Taconic Farms Inc. were used in the test. These rats were kept on Purina laboratory chow and tap water ad libitum for 8 weeks before use. One male adult rat (about 300 g) was dosed by gavage with a test compound at 100 mg/kg together with 0.9% sodium chloride loading at 25 ml/kg at zero hour. The test compound was suspended in 3% preboiled starch at 50 mg/ml. The rat was put in a metabolism cage. The 0-5 hour urine was collected and urinary sodium and potassium were determined using a Beckman Astra 4. The effects of representative compounds of the invention according to this test appear in Table III expressed in milliequivalents (mEQ) of urinary sodium and potassium excreted.

## C=CCOC(=O)N=P(c1ccccc1)(c1ccccc1)c1ccccc1 [(triphenylphosphoranylidene)carbamic acid, 2-propenyl ester]
[1]
  inhibition in vivo at 25 mg/kg: 67%
[2]
  Potassium (urinary excretion): 0.67 mEQ/5 Hours
  Sodium (urinary excretion): 1.17 mEQ/5 Hours
  Volume (urine): 13.3 mL

## CCCOC(=O)N=P(c1ccccc1)(c1ccccc1)c1ccccc1 [(Triphenylphosphoaranylidene)carbamic acid, n-propyl ester]
[1]
  inhibition in vivo at 25 mg/kg: 90%
[2]
  Potassium (urinary excretion): 0.48 mEQ/5 Hours
  Sodium (urinary excretion): 1.37 mEQ/5 Hours
  Volume (urine): 12.5 mL

## CCOC(=O)N=P(c1ccccc1)(c1ccccc1C)c1ccccc1C [[bis(2-methylphenyl)phenylphosphoranylidene]carbamic acid, ethyl ester]
[1]
  inhibition in vivo at 25 mg/kg: 54%
[2]
  Potassium (urinary excretion): 0.73 mEQ/5 Hours
  Sodium (urinary excretion): 1.46 mEQ/5 Hours
  Volume (urine): 14.5 mL

## COC(=O)N=P(c1ccccc1)(c1ccccc1)c1ccccc1C(F)(F)F [[diphenyl[2-(trifluoromethyl)phenyl]phosphoranylidene]carbamic acid, methyl ester]
[1]
  inhibition in vivo at 25 mg/kg: 49%
[2]
  Potassium (urinary excretion): 1.02 mEQ/5 Hours
  Sodium (urinary excretion): 1.71 mEQ/5 Hours
  Volume (urine): 18.5 mL

## CCOC(=O)N=P(c1ccccc1)(c1ccccc1)c1ccccc1C(F)(F)F [[diphenyl[2-(trifluoromethyl)phenyl]phosphoranylidene]carbamic acid, ethyl ester]
[1]
  inhibition in vivo at 25 mg/kg: 75%
[2]
  Potassium (urinary excretion): 0.91 mEQ/5 Hours
  Sodium (urinary excretion): 2.12 mEQ/5 Hours
  Volume (urine): 19.3 mL

## COC(=O)N=P(c1ccccc1)(c1ccccc1)c1ccccc1 [(Triphenylphosphoranylidene)carbamic acid, methyl ester]
[1]
  inhibition in vivo at 25 mg/kg: 72%
[2]
  Potassium (urinary excretion): 0.55 mEQ/5 Hours
  Sodium (urinary excretion): 2.53 mEQ/5 Hours
  Volume (urine): 23.3 mL

## CCOC(=O)N=P(c1ccccc1)(c1ccccc1)c1ccccc1C [[(2-Methylphenyl)diphenylphosphoranylidene]carbamic acid, ethyl ester]
[1]
  inhibition in vivo at 25 mg/kg: 92%
[2]
  Potassium (urinary excretion): 0.78 mEQ/5 Hours
  Sodium (urinary excretion): 2.68 mEQ/5 Hours
  Volume (urine): 25.5 mL

## COC(=O)N=P(c1ccccc1)(c1ccccc1)c1c(C)cccc1C [[(2,6-dimethylphenyl)diphenylphosphoranylidene]carbamic acid, methyl ester]
[1]
  inhibition in vivo at 25 mg/kg: 68%
[2]
  Potassium (urinary excretion): 0.84 mEQ/5 Hours
  Sodium (urinary excretion): 1.33 mEQ/5 Hours
  Volume (urine): 12.8 mL

## Cc1ccccc1P(=NC(=O)OCC1CC1)(c1ccccc1)c1ccccc1 [[(2-methylphenyl)diphenylphosphoranylidene]carbamic acid, cyclopropylmethyl ester]
[1]
  inhibition in vivo at 25 mg/kg: 72%
[2]
  Potassium (urinary excretion): 0.73 mEQ/5 Hours
  Sodium (urinary excretion): 1.33 mEQ/5 Hours
  Volume (urine): 12.0 mL

## Cc1ccccc1P(=NC(=O)OC1CCOC1)(c1ccccc1)c1ccccc1 (centres unmarked) [[(2-Methylphenyl)diphenylphosphoranylidene]carbamic acid, tetrahydro-3-furanyl ester]
[1]
  inhibition in vivo at 25 mg/kg: 93%
[2]
  Potassium (urinary excretion): 0.97 mEQ/5 Hours
  Sodium (urinary excretion): 2.71 mEQ/5 Hours
  Volume (urine): 22.3 mL

## CCOC(=O)N=P(c1ccccc1)(c1ccccc1)c1ccccc1Cl [[(2-chlorophenyl)diphenylphosphoranylidene]carbamic acid, ethyl ester]
[1]
  inhibition in vivo at 25 mg/kg: 96%
[2]
  Potassium (urinary excretion): 0.71 mEQ/5 Hours
  Sodium (urinary excretion): 2.05 mEQ/5 Hours
  Volume (urine): 19.5 mL

## CCO[C@@H]1CCC[C@H]1OC(=O)N=P(c1ccccc1)(c1ccccc1)c1ccccc1 (relative stereo) [(triphenylphosphoranylidene)carbamic acid, trans-2-ethoxycyclopentyl ester]
[2]
  Potassium (urinary excretion): 0.73 mEQ/5 Hours
  Sodium (urinary excretion): 1.38 mEQ/5 Hours
  Volume (urine): 13.3 mL

## CCCC1(OC(=O)N=P(c2ccccc2)(c2ccccc2)c2ccccc2)CCCC1 [(triphenylphosphoranylidene)carbamic acid, 1-propylcyclopentyl ester]
[2]
  Potassium (urinary excretion): 0.63 mEQ/5 Hours
  Sodium (urinary excretion): 1.14 mEQ/5 Hours
  Volume (urine): 10.3 mL

## CCOC(=O)N=P(c1ccccc1)(c1ccccc1)c1ccccc1CC [[(2-ethylphenyl)diphenylphosphoranylidene]carbamic acid, ethyl ester]
[2]
  Potassium (urinary excretion): 0.78 mEQ/5 Hours
  Sodium (urinary excretion): 2.07 mEQ/5 Hours
  Volume (urine): 19.0 mL

## CO[C@@H]1CCCC[C@H]1OC(=O)N=P(c1ccccc1)(c1ccccc1)c1ccccc1 (relative stereo) [(triphenylphosphoranylidene)carbamic acid, trans-2-methoxycyclohexyl ester]
[2]
  Potassium (urinary excretion): 0.67 mEQ/5 Hours
  Sodium (urinary excretion): 1.45 mEQ/5 Hours
  Volume (urine): 12.8 mL

## COC1CCCCC1OC(=O)N=P(c1ccccc1)(c1ccccc1)c1ccccc1 (stereo not drawn) [(triphenylphosphoranylidene)carbamic acid, cis- and trans-2-methoxycyclohexyl ester]
[2]
  Potassium (urinary excretion): 0.59 mEQ/5 Hours
  Sodium (urinary excretion): 1.15 mEQ/5 Hours
  Volume (urine): 11.3 mL

## CC(OC(=O)N=P(c1ccccc1)(c1ccccc1)c1ccccc1)C1CC1 (centres unmarked) [(triphenylphosphoranylidene)carbamic acid, 1-cyclopropylethyl ester]
[2]
  Potassium (urinary excretion): 0.65 mEQ/5 Hours
  Sodium (urinary excretion): 1.19 mEQ/5 Hours
  Volume (urine): 12.0 mL

## CCOC(=O)N=P(c1ccccc1)(c1ccccc1)c1ccccc1F [[Diphenyl(2-fluorophenyl)phosphoranylidene]carbamic acid, ethyl ester]
[2]
  Potassium (urinary excretion): 0.66 mEQ/5 Hours
  Sodium (urinary excretion): 2.01 mEQ/5 Hours
  Volume (urine): 19.8 mL

## Cc1ccccc1P(=NC(=O)OC1CCCC1)(c1ccccc1)c1ccccc1 [[(2-methylphenyl)diphenylphosphoranylidene]carbamic acid, cyclopentyl ester]
[2]
  Potassium (urinary excretion): 0.67 mEQ/5 Hours
  Sodium (urinary excretion): 1.18 mEQ/5 Hours
  Volume (urine): 10.8 mL

## CCOC(=O)N=P(c1ccccc1)(c1ccccc1)c1ccccc1OC [[(2-Methoxyphenyl)diphenylphosphoranylidene]carbamic acid, ethyl ester]
[2]
  Potassium (urinary excretion): 0.97 mEQ/5 Hours
  Sodium (urinary excretion): 1.31 mEQ/5 Hours
  Volume (urine): 11.3 mL

## COC(=O)N=P(c1ccccc1)(c1ccccc1)c1ccccc1C [[(2-methylphenyl)diphenylphosphoranylidene]carbamic acid, methyl ester]
[2]
  Potassium (urinary excretion): 0.88 mEQ/5 Hours
  Sodium (urinary excretion): 1.95 mEQ/5 Hours
  Volume (urine): 18.3 mL

## CC1CC1COC(=O)N=P(c1ccccc1)(c1ccccc1)c1ccccc1 (centres unmarked) [(triphenylphosphoranylidene)carbamic acid, (2-methylcyclopropyl)methyl ester]
[2]
  Potassium (urinary excretion): 0.47 mEQ/5 Hours
  Sodium (urinary excretion): 1.28 mEQ/5 Hours
  Volume (urine): 11.3 mL

## O=C(N=P(c1ccccc1)(c1ccccc1)c1ccccc1)OCC1CCC1 [(Triphenylphosphoranylidene)carbamic acid, cyclobutylmethyl ester]
[2]
  Potassium (urinary excretion): 0.60 mEQ/5 Hours
  Sodium (urinary excretion): 1.47 mEQ/5 Hours
  Volume (urine): 14.5 mL

## O=C(N=P(c1ccccc1)(c1ccccc1)c1ccccc1)OC1CCc2ccccc21 (centres unmarked) [(Triphenylphosphoranylidene)carbamic acid, 2,3-dihydro-1 --H--inden-1-yl ester]
[2]
  Potassium (urinary excretion): 0.87 mEQ/5 Hours
  Sodium (urinary excretion): 1.41 mEQ/5 Hours
  Volume (urine): 13.0 mL
